In patent publication US20190233884A1 (University of Southern California, priority 2016, published 2019):

System: patients with refractory metastatic colorectal cancer (mCRC)
Assay: TAS-102-related toxicity (neutropenia, leukopenia, anemia, anorexia, nausea, diarrhea; CTCAE grade) in training/evaluation and testing/validation cohorts, association with SNPs
Format: in vivo, human
Details: for frequency of Gr3≤ neutropenia: evaluation cohort; for incidence of Gr3≤ neutropenia: validation cohort
Text: Such effects include but are not limited to febrile neutropenia, leukopenia, stomatitis, neutropenia, hand-foot syndrome, cardiac ischemia, thrombocytopenia, increase in alanine aminotransferase level, increase in aspartate aminotransferase level, increase in total bilirubin, increase in alkaline phosphatase level, increase in creatinine level, anemia, anorexia, nausea, vomiting, decreased appetite, fatigue, abdominal pain, fever, asthenia, and diarrhea. […] “Subchronic” toxicity is the ability of a drug substance to cause harmful or adverse effects for […] but less than the lifetime of the exposed organism. “Chronic” toxicity is the ability of a drug substance or combination therapy to cause harmful effects over an extended period, usually upon repeated or continuous exposure, sometimes lasting for the entire life of the exposed organism. Adverse events are classified and graded by severity. Grade 1 adverse events: mild; asymptomatic or mild symptoms; clinical or diagnostic observations only; intervention not indicated. Grade 2 adverse events: moderate; minimal, local or noninvasive intervention indicated; limiting age-appropriate instrumental activities of daily living (ADL). Grade 3 adverse events: severe or medically significant but not immediately life-threatening; hospitalization or prolongation of hospitalization indicated; disabling; limiting self care activities of daily living. Grade 4 adverse events: life-threatening consequences; urgent intervention indicated. Grade 5 adverse event: death related to AE (Department of Health and Human Services, National Institutes of Health, National Cancer Institute. Common terminology criteria for adverse events (CTCAE) v4.03. 2010).
The primary endpoint in this study was progression-free survival (PFS), and the secondary endpoints were overall survival (OS) and disease control rate (DCR). PFS was calculated from the date of starting treatment to the first observation of disease progression or death from any cause. If a patient had no disease progression or death, PFS was censored at the date of last follow up. OS was calculated from the date of starting treatment until the date of death from any cause or the date of the last follow-up, at which point OS was censored. The disease control rate (DCR) was defined as the proportion of patients who achieved a stable disease (SD) or […] according to RECISTv1.1. Chi-square test was used to examine the difference in baseline patient characteristics among the three cohorts. Allelic distribution of all SNPs by ethnicity for deviation from Hardy-Weinberg equilibrium and the allelic frequencies of SNPs were tested using the Chi-square tests with one degree of freedom. The associations between candidate SNPs and disease control, and toxicities were examined using contingency tables and Fisher's exact test. The associations of SNPs with PFS and OS were analysed using Kaplan-Meier curves and the log-rank test. Because the true mode of inheritance of candidate SNPs was not established yet, a codominant or dominant genetic model if appropriate was considered.
All patients underwent the treatment in salvage-line setting. […] In all patients, adverse events were graded according to the Common Terminology Criteria for Adverse Events, version 4.0.
The primary endpoint in this study was progression-free survival (PFS), and the secondary endpoints were overall survival (OS) and disease control rate (DCR). […] Data of patients without disease progression or death were censored at the date of last follow up. OS was calculated from the date of starting treatment until the date of death from any cause. In patients who were lost to follow-up, data were censored at the date of last follow up. The disease control rate (DCR) was defined as the proportion of patients who achieved a stable disease (SD) or […] according to RECIST v1.1.

For Trifluridine/tipiracil [TAS-102], which “frequency of Gr3≤ neutropenia” value (ATM rs609429 C/C (n=4/14)) is on record?
The value was 29%.

What about the “frequency of Gr3≤ neutropenia” value (ATM rs609429 any G allele (n=16/38)) of the same substance?
The value was 42%.

And the “incidence of grade 2≤ neutropenia” value (training cohort)?
The value was 61.5%.

And the “incidence of grade 3≤ neutropenia” value (training cohort)?
Its value is 38.5%.

What about the “frequency of Gr2< neutropenia” value (training cohort, hENT1 rs760370 A/A (n=12/27)) of the same substance?
Its value is 44%.

What about the “frequency of Gr2< neutropenia” value (training cohort, hENT1 rs760370 any G allele (n=20/25)) of the same substance?
The value was 80%.

What about the “treatment delay caused by neutropenia” value (training cohort, share of treatment delays (22/24)) of the same substance?
Its value is 91.8%.

And the “incidence of Gr3≤ neutropenia” value (ATM rs609429 C/C (n=13/51))?
The value was 26%.

What about the “incidence of Gr3≤ neutropenia” value (ATM rs609429 any G allele (n=34/78)) of the same substance?
The value was 44%.
